# Source: patent US20070128217A1 (priority 2003, published 2007)
# Experiments:
# [1] = tested on: antibodies in sera from SARS patients (sera 1a, 1b, 2, 6, 37, 62, London, SARS-yellow, SARS-green); assay type: binding, human; parameters: Binding of serum 6 to linear peptides of protein X1 of SARS-CoV Urbani / Binding of serum 37 to linear peptides of protein X1 of SARS-CoV Urbani / Binding of serum 6 to looped/cyclic peptide (PEPSCAN-ELISA) / Binding of serum 37 to looped/cyclic peptide (PEPSCAN-ELISA) / Binding of serum 37 to looped/cyclic peptides of protein X1 of SARS-CoV Urbani / Binding of serum 6 to linear peptides of protein X2 / Binding of serum 37 to linear peptides of protein X2 / Binding of serum 37 to looped/cyclic peptides of protein X2 of SARS-CoV Urbani / Binding of serum 6 to linear peptides of protein M of SARS-CoV Urbani / Binding of serum 37 to linear peptides of protein M of SARS-CoV Urbani / Binding of serum 6 to looped/cyclic peptides of protein M of SARS-CoV Urbani / Binding of serum 37 to looped/cyclic peptides of protein M of SARS-CoV Urbani / Binding of serum 6 to linear peptides of protein X3 of SARS-CoV Urbani / Binding of serum 37 to linear peptides of protein X3 of SARS-CoV Urbani / Binding of serum 37 to looped/cyclic peptides of protein X3 of SARS-CoV Urbani / Binding of serum 6 to linear peptides of protein X4 of SARS-CoV Urbani / Binding of serum 37 to linear peptides of protein X4 of SARS-CoV Urbani / Binding of serum 37 to looped/cyclic peptides of protein X4 of SARS-CoV Urbani / Binding of serum 6 to linear peptides of protein X5 of SARS-CoV Urbani / Binding of serum 37 to linear peptides of protein X5 of SARS-CoV Urbani / Binding of serum 37 to looped/cyclic peptides of protein X5 of SARS-CoV Urbani / Binding of serum 6 to linear peptides of protein N of SARS-CoV Urbani / Binding of serum 37 to linear peptides of protein N of SARS-CoV Urbani / Binding of serum 6 to linear peptide (PEPSCAN-ELISA) / Binding of serum 1a to looped/cyclic peptides of protein N of SARS-CoV Urbani / Binding of serum 1b to looped/cyclic peptides of protein N of SARS-CoV Urbani / Binding of serum 2 to looped/cyclic peptides of protein N of SARS-CoV Urbani / Binding of serum 6 to looped/cyclic peptides of protein N of SARS-CoV Urbani / Binding of serum 37 to looped/cyclic peptides of protein N of SARS-CoV Urbani / Binding of serum 62 to looped/cyclic peptides of protein N of SARS-CoV Urbani / Binding of serum London to looped/cyclic peptides of protein N of SARS-CoV Urbani / Binding of serum SARS-green to looped/cyclic peptides of protein N of SARS-CoV Urbani: unit not given here
# [2] = tested on: control sera (pooled serum of ten healthy LUMC hospital workers; commercial negative donor pooled serum from the Dutch bloodbank); assay type: binding, human; parameters: Binding of Control serum LUMC to linear peptides / Binding of Control serum Blood-bank to linear peptides / Binding of Control serum LUMC to looped peptides / Binding of Control Serum Blood-Bank to Looped peptides / Binding of Control serum LUMC to linear peptides of the protein M of SARS-CoV Urbani / Binding of Control serum Blood-bank to linear peptides of the protein M of SARS-CoV Urbani / Binding of Control serum LUMC to looped peptides of the protein M of SARS-CoV Urbani / Binding of Control Serum Blood-Bank to Looped peptides of the protein M of SARS-CoV Urbani: unit not given here
# [3] = tested on: rabbit serum obtained by immunizing a rabbit with the SARS-CoV strain Frankfurt 1; assay type: binding; parameters: Binding of a rabbit serum to linear peptides / Binding of a rabbit serum to looped peptides / Rabbit serum linear peptides / Rabbit serum looped peptides / Binding of a rabbit serum to linear peptides of protein N of SARS-CoV Urbani (Rabbit serum linear peptides) / Binding of a rabbit serum to looped/cyclic peptides of protein N of SARS-CoV Urbani (Rabbit serum looped peptides): unit not given here
Sequence,Binding of Control Serum Blood-Bank to Looped peptides [2],Binding of Control serum Blood-bank to linear peptides [2],Binding of Control serum LUMC to linear peptides [2],Binding of Control serum LUMC to looped peptides [2],Rabbit serum linear peptides [3],Rabbit serum looped peptides [3],Binding of serum 1a to linear peptides of protein X4 of SARS-CoV Urbani [1],Binding of serum 1a to looped/cyclic peptides of protein X4 of SARS-CoV Urbani [1],Binding of serum 1b to linear peptides of protein X4 of SARS-CoV Urbani [1],Binding of serum 1b to looped/cyclic peptides of protein X4 of SARS-CoV Urbani [1],Binding of serum 2 to linear peptides of protein X4 of SARS-CoV Urbani [1],Binding of serum 2 to looped/cyclic peptides of protein X4 of SARS-CoV Urbani [1],Binding of serum 6 to linear peptides of protein X4 of SARS-CoV Urbani [1],Binding of serum 37 to linear peptides of protein X4 of SARS-CoV Urbani [1],Binding of serum 37 to looped/cyclic peptides of protein X4 of SARS-CoV Urbani [1],Binding of serum 62 to linear peptides of protein X4 of SARS-CoV Urbani [1],Binding of serum 62 to looped/cyclic peptides of protein X4 of SARS-CoV Urbani [1],Binding of serum London to linear peptides of protein X4 of SARS-CoV Urbani [1],Binding of serum London to looped/cyclic peptides of protein X4 of SARS-CoV Urbani [1],Binding of serum SARS-green to linear peptides of protein X4 of SARS-CoV Urbani [1],also measured
LCALGKVLPFHRWHT,0.4,0.7,0.5,0.6,0.7,0.7,–,–,–,–,–,–,–,–,–,–,–,–,–,–,Binding of serum 1a to linear peptides of protein X5 of SARS-CoV Urbani [1]: 0.7; Binding of serum 1a to looped/cyclic peptides of protein X5 of SARS-CoV Urbani [1]: 0.4; Binding of serum 1b to linear peptides of protein X5 of SARS-CoV Urbani [1]: 0.6; Binding of serum 1b to looped/cyclic peptides of protein X5 of SARS-CoV Urbani [1]: 0.2; Binding of serum 2 to linear peptides of protein X5 of SARS-CoV Urbani [1]: 0.7; Binding of serum 2 to looped/cyclic peptides of protein X5 of SARS-CoV Urbani [1]: 0.5; Binding of serum 6 to linear peptides of protein X5 of SARS-CoV Urbani [1]: 0.5; Binding of serum 6 to looped/cyclic peptides of protein X5 of SARS-CoV Urbani [1]: 0.4; Binding of serum 37 to linear peptides of protein X5 of SARS-CoV Urbani [1]: 0.7; Binding of serum 37 to looped/cyclic peptides of protein X5 of SARS-CoV Urbani [1]: 0.4; Binding of serum 62 to linear peptides of protein X5 of SARS-CoV Urbani [1]: 0.8; Binding of serum 62 to looped/cyclic peptides of protein X5 of SARS-CoV Urbani [1]: 0.6; Binding of serum London to linear peptides of protein X5 of SARS-CoV Urbani [1]: 0.9; Binding of serum London to looped/cyclic peptides of protein X5 of SARS-CoV Urbani [1]: 0.2; Binding of serum SARS-green to linear peptides of protein X5 of SARS-CoV Urbani [1]: 0.6; Binding of serum SARS-green to looped/cyclic peptides of protein X5 of SARS-CoV Urbani [1]: 0.4; Binding of serum SARS-yellow to linear peptides of protein X5 of SARS-CoV Urbani [1]: 0.2; Binding of serum SARS-yellow to looped/cyclic peptides of protein X5 of SARS-CoV Urbani [1]: 0.4
LFIRQEEVQQELYSP,0.8,0.7,0.7,0.8,0.4,0.4,0.8,0.7,0.7,0.5,0.6,0.7,0.5,0.7,0.7,0.8,0.8,0.8,0.3,0.6,Binding of serum SARS-green to looped/cyclic peptides of protein X4 of SARS-CoV Urbani [1]: 0.8; Binding of serum SARS-yellow to linear peptides of protein X4 of SARS-CoV Urbani [1]: 0.7; Binding of serum SARS-yellow to looped/cyclic peptides of protein X4 of SARS-CoV Urbani [1]: 0.7
LFLIVAALVFLILCF,0.7,0.5,0.4,0.4,0.3,0.4,0.6,0.8,0.5,0.4,0.3,0.7,0.4,0.6,0.5,0.6,0.5,0.7,0.2,0.6,Binding of serum 6 to looped/cyclic peptides of protein X4 of SARS-CoV Urbani [1]: 0.3; Binding of serum SARS-green to looped/cyclic peptides of protein X4 of SARS-CoV Urbani [1]: 0.4; Binding of serum SARS-yellow to linear peptides of protein X4 of SARS-CoV Urbani [1]: 0.7; Binding of serum SARS-yellow to looped/cyclic peptides of protein X4 of SARS-CoV Urbani [1]: 0.5
